In ChEMBL document CHEMBL1795227, “Methanesulfonamido-cyclohexylamine derivatives of 2,4-diaminopyrimidine as potent ALK inhibitors” (Bioorg Med Chem Lett, 2011):
pIC50: −log10 of the molar value. Values belong to the compound of their own block, whether it stands above or below them. Active and inactive are the calls of the source. The calls are words filed in the database; no cut-off is given here.

Legend:
[1] = Cmax in Sprague-Dawley rat at 5 mg/kg, po; format: ADME, organism-based; set-up: dose 5 mg/kg, route oral; details: in vivo
[2] = Plasma concentration in Karpas-299 cells xenografted mouse at 30 mg/kg, po administered as single dose measured after 12 hrs; format: ADME, organism-based; set-up: dose 30 mg/kg, route oral
[3] = biological target: Macrophage colony-stimulating factor 1 receptor (Homo sapiens) (UniProt P07333); test: Inhibition of CSF1R at 1 uM
[4] = Oral bioavailability in Sprague-Dawley rat at 5 mg/kg; format: ADME, organism-based; details: in vivo
[5] = biological target: RAC-beta serine/threonine-protein kinase (Homo sapiens) (UniProt P31751); test: Inhibition of AKT2 at 1 uM
[6] = biological target: Proto-oncogene tyrosine-protein kinase Src (Homo sapiens) (UniProt P12931); test: Inhibition of SRC at 1 uM
[7] = tested on: Mus musculus; test: Toxicity in mouse assessed as body weight loss at 30 mg/kg, po bid; format: organism-based; set-up: dose 30 mg/kg, route oral; details: in vivo
[8] = Volume of distribution in CD1 mouse at 1 mg/kg, iv; format: ADME, organism-based; set-up: dose 1 mg/kg, route intravenous; details: in vivo
[9] = Clearance in Sprague-Dawley rat at 1 mg/kg, iv; format: ADME, organism-based; set-up: dose 1 mg/kg, route intravenous; details: in vivo
[10] = tested on: Mus musculus; test: Toxicity in mouse assessed as overt signs at 30 mg/kg, po bid; format: organism-based; set-up: dose 30 mg/kg, route oral; details: in vivo
[11] = biological target: Non-receptor tyrosine-protein kinase TYK2 (Homo sapiens) (UniProt P29597); test: Inhibition of TYK2 domain 2 at 1 uM
[12] = biological target: Receptor-type tyrosine-protein kinase FLT3 (Homo sapiens) (UniProt P36888); test: Inhibition of FLT3 at 1 uM
[13] = AUC (0 to t) in CD1 mouse at 10 mg/kg, po; format: ADME, organism-based; set-up: dose 10 mg/kg, route oral; details: plasma
[14] = biological target: RAC-gamma serine/threonine-protein kinase (Homo sapiens) (UniProt Q9Y243); test: Inhibition of AKT3 at 1 uM
[15] = tested on: KARPAS-299; test: Antitumor activity against human KARPAS299 cells xenografted in mouse assessed as tumor growth inhibition at 55 mg/kg, po bid; format: functional; details: read-out: GI
[16] = Volume of distribution in Sprague-Dawley rat at 1 mg/kg, iv; format: ADME, organism-based; set-up: dose 1 mg/kg, route intravenous; details: in vivo
[17] = biological target: Fibroblast growth factor receptor 1 (Homo sapiens) (UniProt P11362); test: Inhibition of FGFR1 at 1 uM
[18] = Half life in Sprague-Dawley rat at 1 mg/kg, iv; format: ADME, organism-based; set-up: dose 1 mg/kg, route intravenous; details: in vivo
[19] = tested on: Mus musculus; test: Inhibition of NPM-ALK autophosphorylation in Karpas-299 cells xenografted mouse at 30 mg/kg, po administered as single dose measured after 6 hrs; format: functional, organism-based; set-up: dose 30 mg/kg
[20] = Tmax in CD1 mouse at 10 mg/kg, po; format: ADME, organism-based; set-up: dose 10 mg/kg, route oral; details: in vivo
[21] = tested on: Mus musculus; test: Inhibition of NPM-ALK autophosphorylation in Karpas-299 cells xenografted mouse at 30 mg/kg, po administered as single dose measured after 2 hrs; format: functional; details: KARPAS-299, 2 h
[22] = tested on: Mus musculus; test: Toxicity in mouse assessed as overt signs at 55 mg/kg, po bid; format: organism-based; set-up: dose 55 mg/kg, route oral; details: in vivo
[23] = biological target: Receptor tyrosine-protein kinase erbB-4 (Homo sapiens) (UniProt Q15303); test: Inhibition of ERBB4 at 1 uM
[24] = biological target: T1, ALK tyrosine kinase receptor (Homo sapiens, UniProt Q9UM73); test: Inhibition of ALK
[25] = Clearance in CD1 mouse at 1 mg/kg, iv; format: ADME, organism-based; set-up: dose 1 mg/kg, route intravenous; details: in vivo
[26] = Cmax in CD1 mouse at 10 mg/kg, po; format: ADME, organism-based; set-up: dose 10 mg/kg, route oral; details: in vivo
[27] = AUC (0 to t) in Sprague-Dawley rat at 1 mg/kg, iv; format: ADME, organism-based; set-up: dose 1 mg/kg, route intravenous; details: plasma
[28] = Half life in CD1 mouse at 1 mg/kg, iv; format: ADME, organism-based; set-up: dose 1 mg/kg, route intravenous; details: in vivo
[29] = Drug level in tumor of Karpas-299 cells xenografted mouse at 30 mg/kg, po administered as single dose measured after 6 hrs; format: ADME, organism-based, Neoplasm; set-up: dose 30 mg/kg, route oral; details: read-out: Drug uptake
[30] = Drug level in tumor of Karpas-299 cells xenografted mouse at 30 mg/kg, po administered as single dose measured after 12 hrs; format: ADME, organism-based, Neoplasm; set-up: dose 30 mg/kg, route oral; details: read-out: Drug uptake
[31] = biological target: Tyrosine-protein kinase ITK/TSK (Homo sapiens) (UniProt Q08881); test: Inhibition of ITK at 1 uM
[32] = biological target: T1, ALK tyrosine kinase receptor; test: Inhibition of autophosphorylation of NPM-ALK in human Karpas-299 cells; format: cell-based
[33] = biological target: Epidermal growth factor receptor (Homo sapiens) (UniProt P00533); test: Inhibition of EGFR at 1 uM
[34] = tested on: KARPAS-299; test: Antitumor activity against human KARPAS299 cells xenografted in mouse assessed as tumor growth inhibition at 30 mg/kg, po bid; format: functional; details: read-out: GI
[35] = Oral bioavailability in CD1 mouse at 10 mg/kg; format: ADME, organism-based; details: in vivo
[36] = Tmax in Sprague-Dawley rat at 5 mg/kg, po; format: ADME, organism-based; set-up: dose 5 mg/kg, route oral; details: in vivo
[37] = biological target: Serine/threonine-protein kinase STK11 (Homo sapiens) (UniProt Q15831); test: Inhibition of LKB1 at 1 uM
[38] = Half life in CD1 mouse at 10 mg/kg, po; format: ADME, organism-based; set-up: dose 10 mg/kg, route oral; details: in vivo
[39] = tested on: Mus musculus; test: Toxicity in mouse assessed as body weight loss at 55 mg/kg, po bid; format: organism-based; set-up: dose 55 mg/kg, route oral; details: in vivo
[40] = Drug level in tumor of Karpas-299 cells xenografted mouse at 30 mg/kg, po administered as single dose measured after 2 hrs; format: ADME, organism-based, Neoplasm; set-up: dose 30 mg/kg, route oral; details: read-out: Drug uptake
[41] = AUC (0 to t) in Sprague-Dawley rat at 5 mg/kg, po; format: ADME, organism-based; set-up: dose 5 mg/kg, route oral; details: plasma
[42] = Plasma concentration in Karpas-299 cells xenografted mouse at 30 mg/kg, po administered as single dose measured after 6 hrs; format: ADME, organism-based; set-up: dose 30 mg/kg, route oral
[43] = biological target: Aurora kinase A (Homo sapiens) (UniProt O14965); test: Inhibition of AURKA at 1 uM
[44] = AUC (0 to t) in CD1 mouse at 1 mg/kg, iv; format: ADME, organism-based; set-up: dose 1 mg/kg, route intravenous; details: plasma
[45] = biological target: Mitogen-activated protein kinase 11 (Homo sapiens) (UniProt Q15759); test: Inhibition of p38 beta at 1 uM
[46] = biological target: Insulin receptor (Homo sapiens, UniProt P06213); test: Inhibition of IR
[47] = biological target: Tyrosine-protein kinase ZAP-70 (Homo sapiens) (UniProt P43403); test: Inhibition of ZAP70 at 1 uM
[48] = Plasma concentration in Karpas-299 cells xenografted mouse at 30 mg/kg, po administered as single dose measured after 2 hrs; format: ADME, organism-based; set-up: dose 30 mg/kg, route oral

Chain of Serine/threonine-protein kinase STK11 (Homo sapiens) (Q15831 whole entry): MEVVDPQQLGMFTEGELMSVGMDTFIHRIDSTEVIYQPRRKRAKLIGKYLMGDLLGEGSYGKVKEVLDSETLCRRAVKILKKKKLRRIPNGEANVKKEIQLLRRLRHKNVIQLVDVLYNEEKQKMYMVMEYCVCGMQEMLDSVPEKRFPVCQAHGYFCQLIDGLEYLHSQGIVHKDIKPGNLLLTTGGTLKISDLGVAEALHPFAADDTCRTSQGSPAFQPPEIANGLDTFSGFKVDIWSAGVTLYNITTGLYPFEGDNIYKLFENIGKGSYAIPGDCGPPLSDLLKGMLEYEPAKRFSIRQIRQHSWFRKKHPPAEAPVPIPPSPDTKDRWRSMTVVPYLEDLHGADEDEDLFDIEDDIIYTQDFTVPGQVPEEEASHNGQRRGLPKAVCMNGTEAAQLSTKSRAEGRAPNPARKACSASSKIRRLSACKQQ
Chain of Tyrosine-protein kinase ITK/TSK (Homo sapiens) (Q08881 whole entry): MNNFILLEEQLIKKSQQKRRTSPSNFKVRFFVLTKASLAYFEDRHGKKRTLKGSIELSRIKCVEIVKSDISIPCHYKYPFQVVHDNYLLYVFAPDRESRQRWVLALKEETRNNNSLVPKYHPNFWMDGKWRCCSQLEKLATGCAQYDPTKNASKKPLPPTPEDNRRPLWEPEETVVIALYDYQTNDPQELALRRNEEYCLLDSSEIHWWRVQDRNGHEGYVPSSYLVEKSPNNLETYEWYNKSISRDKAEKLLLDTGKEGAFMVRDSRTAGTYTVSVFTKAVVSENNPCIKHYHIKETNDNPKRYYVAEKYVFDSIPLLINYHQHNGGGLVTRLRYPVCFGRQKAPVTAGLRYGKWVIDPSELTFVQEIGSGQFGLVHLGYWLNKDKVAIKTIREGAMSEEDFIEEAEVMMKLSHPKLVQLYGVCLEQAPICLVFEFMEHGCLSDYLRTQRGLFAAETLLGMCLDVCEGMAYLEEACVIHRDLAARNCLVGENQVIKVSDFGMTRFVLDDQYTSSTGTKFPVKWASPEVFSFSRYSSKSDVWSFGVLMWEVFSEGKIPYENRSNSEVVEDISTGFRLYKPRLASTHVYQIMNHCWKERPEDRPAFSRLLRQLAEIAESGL
Chain of Mitogen-activated protein kinase 11 (Homo sapiens) (Q15759 whole entry): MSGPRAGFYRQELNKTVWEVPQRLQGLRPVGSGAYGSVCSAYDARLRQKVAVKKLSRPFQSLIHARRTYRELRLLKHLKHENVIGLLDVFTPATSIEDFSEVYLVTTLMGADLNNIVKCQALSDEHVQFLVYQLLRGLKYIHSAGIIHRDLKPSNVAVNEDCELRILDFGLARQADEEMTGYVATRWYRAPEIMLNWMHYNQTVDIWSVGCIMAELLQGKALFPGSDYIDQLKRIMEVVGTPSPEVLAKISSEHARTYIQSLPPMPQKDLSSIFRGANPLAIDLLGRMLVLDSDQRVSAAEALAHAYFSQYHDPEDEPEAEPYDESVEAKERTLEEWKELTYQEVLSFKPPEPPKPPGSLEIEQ
Chain of Receptor-type tyrosine-protein kinase FLT3 (Homo sapiens) (P36888 whole entry): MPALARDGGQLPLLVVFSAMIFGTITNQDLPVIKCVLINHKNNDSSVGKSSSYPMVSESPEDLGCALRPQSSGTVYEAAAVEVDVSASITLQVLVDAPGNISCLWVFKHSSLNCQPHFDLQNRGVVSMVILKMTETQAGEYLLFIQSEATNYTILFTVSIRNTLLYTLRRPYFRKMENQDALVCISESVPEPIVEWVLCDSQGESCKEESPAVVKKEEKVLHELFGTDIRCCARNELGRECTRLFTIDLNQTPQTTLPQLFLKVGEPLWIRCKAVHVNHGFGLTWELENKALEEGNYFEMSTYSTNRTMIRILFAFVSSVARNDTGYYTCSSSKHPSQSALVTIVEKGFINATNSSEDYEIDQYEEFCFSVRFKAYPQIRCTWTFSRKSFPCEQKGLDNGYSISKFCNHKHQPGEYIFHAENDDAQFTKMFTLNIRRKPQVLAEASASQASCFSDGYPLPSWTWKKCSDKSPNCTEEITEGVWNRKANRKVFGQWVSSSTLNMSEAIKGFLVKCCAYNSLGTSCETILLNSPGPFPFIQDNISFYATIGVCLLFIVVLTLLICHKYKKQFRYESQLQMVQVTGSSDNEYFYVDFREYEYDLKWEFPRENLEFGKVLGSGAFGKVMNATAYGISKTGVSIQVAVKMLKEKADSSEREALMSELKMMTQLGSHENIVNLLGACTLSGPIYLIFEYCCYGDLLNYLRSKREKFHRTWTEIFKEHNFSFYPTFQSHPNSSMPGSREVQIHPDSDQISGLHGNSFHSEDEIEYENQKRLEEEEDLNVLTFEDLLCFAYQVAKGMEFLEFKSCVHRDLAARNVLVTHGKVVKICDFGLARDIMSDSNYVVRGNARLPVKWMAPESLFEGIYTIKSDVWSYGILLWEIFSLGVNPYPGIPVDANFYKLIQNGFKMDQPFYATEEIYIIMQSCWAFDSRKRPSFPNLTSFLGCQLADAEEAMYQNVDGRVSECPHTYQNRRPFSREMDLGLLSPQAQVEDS
Chain of Aurora kinase A (Homo sapiens) (O14965 whole entry): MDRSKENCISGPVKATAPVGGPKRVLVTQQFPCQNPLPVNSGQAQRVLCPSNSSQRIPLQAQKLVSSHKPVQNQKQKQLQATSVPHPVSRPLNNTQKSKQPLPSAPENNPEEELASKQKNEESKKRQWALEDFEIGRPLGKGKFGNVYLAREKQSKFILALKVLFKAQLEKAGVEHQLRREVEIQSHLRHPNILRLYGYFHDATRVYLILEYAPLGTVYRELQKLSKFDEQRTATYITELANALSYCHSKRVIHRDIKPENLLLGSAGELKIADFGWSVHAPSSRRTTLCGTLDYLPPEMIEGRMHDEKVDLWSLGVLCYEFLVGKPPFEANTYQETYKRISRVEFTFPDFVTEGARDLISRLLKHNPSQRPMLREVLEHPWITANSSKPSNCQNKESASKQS
Chain of Receptor tyrosine-protein kinase erbB-4 (Homo sapiens) (Q15303 whole entry): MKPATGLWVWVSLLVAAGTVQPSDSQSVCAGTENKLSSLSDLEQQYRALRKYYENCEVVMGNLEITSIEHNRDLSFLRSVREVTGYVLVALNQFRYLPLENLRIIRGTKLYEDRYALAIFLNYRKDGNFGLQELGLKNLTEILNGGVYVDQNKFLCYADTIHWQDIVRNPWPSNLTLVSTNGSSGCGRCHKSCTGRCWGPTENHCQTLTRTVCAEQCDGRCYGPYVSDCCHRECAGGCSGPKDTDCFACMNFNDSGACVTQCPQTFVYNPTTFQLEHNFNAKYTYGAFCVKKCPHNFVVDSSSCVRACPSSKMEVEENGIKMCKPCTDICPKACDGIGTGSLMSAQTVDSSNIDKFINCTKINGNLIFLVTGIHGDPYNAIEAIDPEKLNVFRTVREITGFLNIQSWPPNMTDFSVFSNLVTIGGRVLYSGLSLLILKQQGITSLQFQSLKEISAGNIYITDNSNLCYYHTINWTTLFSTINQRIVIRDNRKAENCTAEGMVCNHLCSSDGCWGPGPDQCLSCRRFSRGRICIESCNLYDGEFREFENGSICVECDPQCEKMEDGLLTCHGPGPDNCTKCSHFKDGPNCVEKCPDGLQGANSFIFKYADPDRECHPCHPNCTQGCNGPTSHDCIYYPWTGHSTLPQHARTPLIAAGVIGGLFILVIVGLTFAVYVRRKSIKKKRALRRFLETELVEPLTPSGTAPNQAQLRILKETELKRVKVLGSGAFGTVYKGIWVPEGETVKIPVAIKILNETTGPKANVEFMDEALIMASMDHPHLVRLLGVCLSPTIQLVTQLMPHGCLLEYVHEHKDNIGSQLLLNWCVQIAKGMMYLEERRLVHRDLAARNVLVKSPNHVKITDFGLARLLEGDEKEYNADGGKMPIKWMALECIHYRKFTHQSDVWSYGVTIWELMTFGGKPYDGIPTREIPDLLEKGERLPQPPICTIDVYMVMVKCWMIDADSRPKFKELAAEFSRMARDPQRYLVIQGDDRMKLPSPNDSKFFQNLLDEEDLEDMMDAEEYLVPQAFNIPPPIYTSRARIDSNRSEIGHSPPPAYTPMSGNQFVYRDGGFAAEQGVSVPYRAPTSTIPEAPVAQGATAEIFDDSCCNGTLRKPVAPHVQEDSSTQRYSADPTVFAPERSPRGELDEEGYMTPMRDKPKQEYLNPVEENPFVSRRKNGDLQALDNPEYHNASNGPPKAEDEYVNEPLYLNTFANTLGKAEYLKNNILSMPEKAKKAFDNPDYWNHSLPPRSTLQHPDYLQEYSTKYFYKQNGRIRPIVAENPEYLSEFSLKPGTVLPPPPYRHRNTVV
Chain of Tyrosine-protein kinase ZAP-70 (Homo sapiens) (P43403 whole entry): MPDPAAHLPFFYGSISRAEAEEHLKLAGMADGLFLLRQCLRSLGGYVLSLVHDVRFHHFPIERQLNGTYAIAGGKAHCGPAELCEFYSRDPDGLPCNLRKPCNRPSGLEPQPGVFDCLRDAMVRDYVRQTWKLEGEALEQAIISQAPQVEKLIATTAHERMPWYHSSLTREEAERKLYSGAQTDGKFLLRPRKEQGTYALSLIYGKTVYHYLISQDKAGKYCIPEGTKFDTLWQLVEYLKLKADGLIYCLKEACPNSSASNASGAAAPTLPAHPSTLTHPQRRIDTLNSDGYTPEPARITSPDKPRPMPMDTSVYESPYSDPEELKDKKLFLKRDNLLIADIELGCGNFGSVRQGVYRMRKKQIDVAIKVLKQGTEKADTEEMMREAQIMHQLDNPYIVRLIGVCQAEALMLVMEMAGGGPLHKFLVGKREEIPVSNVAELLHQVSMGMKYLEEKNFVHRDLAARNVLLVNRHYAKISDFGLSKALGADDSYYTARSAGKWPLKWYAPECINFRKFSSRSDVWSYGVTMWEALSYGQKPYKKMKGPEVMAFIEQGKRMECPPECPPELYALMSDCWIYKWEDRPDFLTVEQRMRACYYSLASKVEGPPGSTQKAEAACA

- Cmax [1]: 23 ng/mL
- concentration at 12 h [2]: 2650 ng/mL
- inhibition [3]: < 65%
- bioavailability [4]: 24%
- inhibition [5]: < 65%
- inhibition [6]: < 65%
- Vd [8]: 0.4 L/kg
- clearance [9]: 217 mL/min/kg
- inhibition [11]: < 65%
- inhibition [12]: 82%
- AUC(0-t) [13]: 8200 ng·h/mL
- inhibition [14]: < 65%
- Vd [16]: 10.1 L/kg
- inhibition [17]: 86%
- half-life [18]: 0.6 h
- Tmax [20]: 1 h
- inhibition [23]: 74%
- pIC50 [24]: 8.22
- clearance [25]: 5.6 mL/min/kg
- Cmax [26]: 2880 ng/mL
- AUC(0-t) [27]: 72 ng·h/mL
- half-life [28]: 0.9 h
- concentration at 6 h [29]: 602 ng/g
- concentration at 12 h [30]: 279 ng/g
- inhibition [31]: < 65%
- pIC50 [32]: 7.19
- inhibition [33]: < 65%
- bioavailability [35]: 28%
- Tmax [36]: 1.8 h
- inhibition [37]: < 65%
- half-life [38]: 1 h
- concentration at 2 h [40]: 695 ng/g
- AUC(0-t) [41]: 110 ng·h/mL
- concentration at 6 h [42]: 3680 ng/mL
- inhibition [43]: < 65%
- AUC(0-t) [44]: 2930 ng·h/mL
- inhibition [45]: < 65%
- pIC50 [46]: 5.85
- inhibition [47]: < 65%
- concentration at 2 h [48]: 2740 ng/mL
Compound: COCCN1CCc2cc(Nc3ncc(Cl)c(N[C@@H]4CCCC[C@H]4NS(C)(=O)=O)n3)c(OC)cc2CC1
- Activity [7]: Non-toxic
- Activity [10]: Non-toxic
- inhibition in vivo at 55 mg/kg [15]: 54%
- inhibition [19]: inactive
- inhibition in vivo at 30 mg/kg [21]: 75%
- Activity [22]: Non-toxic
- inhibition in vivo at 30 mg/kg [34]: 45%
- Activity [39]: Non-toxic

- inhibition [3]: 98%
- inhibition [5]: < 65%
- inhibition [6]: < 65%
- inhibition [11]: < 65%
- inhibition [12]: 99%
- inhibition [14]: < 65%
- inhibition [17]: 100%
- inhibition [23]: 98%
- pIC50 [24]: 8.52
- inhibition [31]: < 65%
- pIC50 [32]: 7.82
- inhibition [33]: 89%
- inhibition [37]: 94%
- inhibition [43]: < 65%
- inhibition [45]: < 65%
- pIC50 [46]: 6.34
- inhibition [47]: < 65%
Compound: COCCN1CCc2cc(Nc3ncc(Cl)c(N[C@@H]4CCCC[C@H]4N(C)S(C)(=O)=O)n3)c(OC)cc2CC1
